According to PubChem BioAssay (NCI):
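GI50 = concentration required for 50% inhibition of growth. The concentration for full growth arrest is given as TGI.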

Experiments:
Assay in all cases: NCI-60 cell line screen, 384-well format
[1] = test system: 786-0 renal
[2] = test system: A498 renal
[3] = test system: A549 NSCLC
[4] = test system: ACHN renal
[5] = test system: BT-549 breast
[6] = test system: CAKI-1 renal
[7] = test system: CCRF-CEM leukemia
[8] = test system: DU-145 prostate
[9] = test system: EKVX NSCLC
[10] = test system: HCT-116 colon
[11] = test system: HCT-15 colon
[12] = test system: HL-60(TB) leukemia
[13] = test system: HOP-62 NSCLC
[14] = test system: HOP-92 NSCLC
[15] = test system: HS 578T breast
[16] = test system: HT29 colon
[17] = test system: IGROV1 ovarian
[18] = test system: K-562 leukemia
[19] = test system: KM12 colon
[20] = test system: LOX IMVI melanoma
[21] = test system: M14 melanoma
[22] = test system: MALME-3M melanoma
[23] = test system: MCF7 breast
[24] = test system: MDA-MB-231 breast
[25] = test system: MDA-MB-435 melanoma
[26] = test system: MDA-MB-468 breast
[27] = test system: NCI-H226 lung
[28] = test system: NCI-H23 lung
[29] = test system: NCI-H322M lung
[30] = test system: NCI-H522 lung
[31] = test system: NCI/ADR-RES ovarian
[32] = test system: OVCAR-3 ovarian
[33] = test system: OVCAR-4 ovarian
[34] = test system: OVCAR-5 ovarian
[35] = test system: OVCAR-8 ovarian
[36] = test system: PC-3 prostate
[37] = test system: RPMI-8226 leukemia
[38] = test system: RXF 393 renal
[39] = test system: SF-268 CNS
[40] = test system: SF-295 CNS
[41] = test system: SF-539 CNS
[42] = test system: SK-MEL-2 melanoma
[43] = test system: SK-MEL-28 melanoma
[44] = test system: SK-OV-3 ovarian
[45] = test system: SN12C renal
[46] = test system: SNB-19 CNS
[47] = test system: SNB-75 CNS
[48] = test system: SW-620 colon
[49] = test system: T-47D breast
[50] = test system: TK-10 renal
[51] = test system: U251 glioblastoma
[52] = test system: UACC-257 melanoma
[53] = test system: UACC-62 melanoma
[54] = test system: UO-31 renal

Compound: COc1cc([C@@H]2c3cc4c(cc3[C@@H](OC3OC5CO[C@@H](c6cccs6)OC5C(O)C3O)[C@H]3COC(=O)[C@H]23)OCO4)cc(OC)c1O (stereo not given in full)
- GI50 [1]: 197 nM
- TGI [1]: 1180 nM
- GI50 [2]: 206 nM
- TGI [2]: 3510 nM
- GI50 [3]: 173 nM
- TGI [3]: 4080 nM
- GI50 [4]: 296 nM
- TGI [4]: 1710 nM
- GI50 [5]: 75.8 nM
- TGI [5]: 537 nM
- GI50 [6]: 224 nM
- TGI [6]: 4460 nM
- TGI [7]: 21.9 nM
- GI50 [8]: 212 nM
- TGI [8]: 1210 nM
- GI50 [9]: 3010 nM
- TGI [9]: 28700 nM
- GI50 [10]: 67.8 nM
- TGI [10]: 2020 nM
- GI50 [11]: 170 nM
- TGI [11]: 1390 nM
- TGI [12]: 11.6 nM
- GI50 [13]: 74.1 nM
- TGI [13]: 267 nM
- GI50 [14]: 321 nM
- TGI [14]: 8750 nM
- GI50 [15]: 62.4 nM
- TGI [15]: 703 nM
- GI50 [16]: 236 nM
- TGI [16]: 1230 nM
- GI50 [17]: 1350 nM
- TGI [17]: 10000 nM
- GI50 [18]: 154 nM
- TGI [18]: 1420 nM
- GI50 [19]: 113 nM
- TGI [19]: 1350 nM
- GI50 [20]: 169 nM
- TGI [20]: 1570 nM
- GI50 [21]: 160 nM
- TGI [21]: 1150 nM
- GI50 [22]: 671 nM
- TGI [22]: 3970 nM
- GI50 [23]: 82.8 nM
- TGI [23]: 12200 nM
- GI50 [24]: 171 nM
- TGI [24]: 599 nM
- GI50 [25]: 756 nM
- TGI [25]: 2430 nM
- GI50 [26]: 138 nM
- TGI [26]: 350 nM
- GI50 [27]: 311 nM
- TGI [27]: 8810 nM
- GI50 [28]: 77.1 nM
- TGI [28]: 664 nM
- GI50 [29]: 3250 nM
- TGI [29]: 14300 nM
- GI50 [30]: 198 nM
- TGI [30]: 1530 nM
- GI50 [31]: 63700 nM
- TGI [31]: > 100000 nM
- GI50 [32]: 348 nM
- TGI [32]: 2070 nM
- GI50 [33]: 3420 nM
- TGI [33]: 17400 nM
- GI50 [34]: 395 nM
- TGI [34]: 2410 nM
- GI50 [35]: 151 nM
- TGI [35]: 1470 nM
- GI50 [36]: 1390 nM
- TGI [36]: 5760 nM
- TGI [37]: 161 nM
- GI50 [38]: 685 nM
- TGI [38]: 2510 nM
- GI50 [39]: 134 nM
- TGI [39]: 1350 nM
- GI50 [40]: 103 nM
- TGI [40]: 490 nM
- GI50 [41]: 95.9 nM
- TGI [41]: 560 nM
- GI50 [42]: 567 nM
- TGI [42]: 890 nM
- GI50 [43]: 321 nM
- TGI [43]: 1970 nM
- GI50 [44]: 326 nM
- TGI [44]: 2670 nM
- GI50 [45]: 139 nM
- TGI [45]: 665 nM
- GI50 [46]: 219 nM
- TGI [46]: > 100000 nM
- GI50 [47]: 327 nM
- TGI [47]: 1780 nM
- GI50 [48]: 44.9 nM
- TGI [48]: 1350 nM
- GI50 [49]: 146 nM
- TGI [49]: 27300 nM
- GI50 [50]: 825 nM
- TGI [50]: 2240 nM
- GI50 [51]: 67.4 nM
- TGI [51]: 1200 nM
- GI50 [52]: 2850 nM
- TGI [52]: 13100 nM
- GI50 [53]: 103 nM
- TGI [53]: 1800 nM
- GI50 [54]: 4000 nM
- TGI [54]: 17500 nM
